# Columns and labels:
# Format in all cases: functional
# MT4 [1] = assay: Inhibitory concentration against HIV-1 in MT-4 cell line.; details: Homo sapiens, read-out: ID50 (the source's name)
# MT4 [2] = assay: Cytotoxic activity against MT-4 cell line; details: Homo sapiens, read-out: CD50 (the source's name)
# MT4 [3] = assay: Compound was tested for its inhibitory concentration against HIV-1 in MT-4 cell line; details: Homo sapiens, read-out: ID50 (the source's name)
Compound,IC50 (MT4 [1]) [µg/mL],CC50 (MT4 [2]) [µg/mL],IC50 (MT4 [3]) [µg/mL]
Cc1cn(C2COC(CO)S2)c(=O)[nH]c1=O (configuration not stated),> 100,> 100,
Nc1ncnc2c1ncn2[C@@H]1COC(CO)S1 (some centres not stated),> 100,> 100,
O=c1ccn(C2COC(CO)S2)c(=O)[nH]1 (configuration not stated),> 100,> 100,
Nc1nc(=O)n([C@@H]2COC(CO)S2)cc1F (some centres not stated),> 100,> 100,
Nc1ccn([C@@H]2COC(CO)S2)c(=O)n1 (some centres not stated),> 100,> 100,
Nc1ncnc2c1ncn2[C@@H]1CO[C@H](CO)S1,50,100,
O=c1ccn([C@@H]2COC(CO)S2)c(=O)[nH]1 (some centres not stated),> 100,> 100,
Nc1ccn(C2COC(CO)S2)c(=O)n1 (configuration not stated),,10,> 10
Nc1ncnc2c1ncn2[C@H]1CO[C@@H](CO)S1,1.1,100,
Cc1cn([C@H]2C[C@H](N=[N+]=[N-])[C@@H](CO)O2)c(=O)[nH]c1=O [ZIDOVUDINE],0.06,> 1,
Nc1nc(O)c2ncn(C3COC(CO)S3)c2n1 (configuration not stated),> 100,> 100,
O=c1[nH]cnc2c1ncn2[C@H]1CC[C@@H](CO)O1 [DIDANOSINE],2.3,100,
Cc1cn([C@@H]2COC(CO)S2)c(=O)[nH]c1=O (some centres not stated),> 100,> 100,
Nc1ccn([C@@H]2CS[C@H](CO)O2)c(=O)n1 [LAMIVUDINE],0.13,> 100,
Nc1nc(=O)n(C2COC(CO)S2)cc1F (configuration not stated),2.5,> 100,
Nc1ncnc2c1ncn2C1COC(CO)S1 (configuration not stated),2.1,100,
